Experimental data published in patent US20210341378A1, “HIGH-CONTENT IMAGING OF MICROFLUIDIC DEVICES” (priority 2019, published 2021).

How the values were obtained:
[1] = test system: microfluidic devices seeded with human liver cells; test: Albumin secretion (ELISA), human Liver-Chip; assay type: cell-based
Excerpt: Prior to cell seeding, microfluidic devices, in this case S-I Chips (Emulate, Inc. Boston, Mass., USA), were functionalized using Emulate's proprietary protocols and reagents (ER™), including those described herein. After surface functionalization, both channels of the microfluidic device were coated with species-specific extracellular matrices (ECM). For the human bound microfluidic device, a mixture of collagen type I (Corning, Corning, N.Y., USA) and fibronectin, e.g. bovine, (Gibco) was used; for the rat bound microfluidic devices a mixture of collagen type IV, e.g. human placenta, (Sigma-Aldrich, St. Louis, Mo., USA) and fibronectin (Gibco) was used; for the dog bound microfluidic devices a mixture of collagen I (Corning), collagen type IV (Sigma-Aldrich), and fibronectin (Gibco) was used. […] For the dual-cell culture model (hepatocytes and endothelial cells), the LSECs were seeded at a concentration of 2-4 million cells/mL in the lower vascular channel. […] After cell seeding, the upper channel of the microfluidic device was maintained in William's E Medium (WEM) containing Glutamax (Gibco), ITS+ (Corning), dexamethasone (Sigma-Aldrich), ascorbic acid (Sigma-Aldrich), fetal bovine serum (FBS) (Sigma-Aldrich), and Penicillin/Streptomycin (Sigma-Aldrich). The vascular channel of the microfluidic device was maintained with species-specific endothelial media (Emulate, Inc.). Two days after seeding, the microfluidic devices were connected to the Human Emulation System™ (Emulate, Inc.), as described in part herein, and both of the microfluidic device channels were perfused at 30 μL/hr to provide a continuous supply of fresh media for the duration of the experiments. Albumin secretion from the upper channel was quantified using ELISA kits for human, rat, and dog models effluent samples (human and rat: Abcam; dog: Immunology Consultants Laboratory, Inc., Portland, Oreg., USA) and the assays were performed according to the protocol provided by each vendor.

[2] = test system: microfluidic devices seeded with rat liver cells; test: Albumin secretion (ELISA), rat Liver-Chip; assay type: cell-based; settings: FIAU 1, 10 and 30 μM, rat chip
Excerpt: Prior to cell seeding, microfluidic devices, in this case S-I Chips (Emulate, Inc. Boston, Mass., USA), were functionalized using Emulate's proprietary protocols and reagents (ER™), including those described herein. After surface functionalization, both channels of the microfluidic device were coated with species-specific extracellular matrices (ECM). For the human bound microfluidic device, a mixture of collagen type I (Corning, Corning, N.Y., USA) and fibronectin, e.g. bovine, (Gibco) was used; for the rat bound microfluidic devices a mixture of collagen type IV, e.g. human placenta, (Sigma-Aldrich, St. Louis, Mo., USA) and fibronectin (Gibco) was used; for the dog bound microfluidic devices a mixture of collagen I (Corning), collagen type IV (Sigma-Aldrich), and fibronectin (Gibco) was used. […] For the dual-cell culture model (hepatocytes and endothelial cells), the LSECs were seeded at a concentration of 2-4 million cells/mL in the lower vascular channel. […] Albumin secretion from the upper channel was quantified using ELISA kits for human, rat, and dog models effluent samples (human and rat: Abcam; dog: Immunology Consultants Laboratory, Inc., Portland, Oreg., USA) and the assays were performed according to the protocol provided by each vendor.

[3] = test system: microfluidic devices seeded with human liver cells; test: Release of DILI biomarkers (miR-122, alpha-GST, keratin 18), human Liver-Chip; assay type: cell-based
Excerpt: Exemplary Biomarker, e.g. DILI: Keratin 18 levels were quantified in human model effluent samples from both the hepatocyte and vascular channels using the M65 EpiDeath CK18 ELISA Kit (DiaPharma, Detroit, Mich., USA). The assay was run following the vendor protocol using a standard curve ranging from 0-5,000 U/L. Additionally, a standard curve ranging from 0-500 U/L was generated independently for quality control.
Exemplary Biomarker, e.g. DILI: Alpha Glutathione S-Transferase (α-GST) levels were quantified in human model effluent samples from the upper channel using an ELISA kit (DiaPharma). The assay was run following the vendor protocol using a standard curve ranging from 0-64 μg/L. Additionally, a standard curve ranging from 0-50 μg/L was generated independently for quality control.
Exemplary Biomarker, e.g. DILI: Mir-122: Isolation of micro-RNAs was performed on upper and lower chamber eluates using Qiagen's (Hilden, Germany) miRNA isolation kit for serum and plasma. A total volume of 50 μL was used for isolation. Isolation was performed according to manufacturer's protocol using a 56.5 pM oligonucleotide spike-in control. Samples were eluted with 14 μL RNase-free water. Reverse transcription was performed using Thermo Fisher Scientific's TaqMan™ MicroRNA Reverse Transcription Kit according to the manufacturer's protocol. A total reaction volume of 15 μL was used. Real-time PCR was performed using Thermo Fisher Scientific's TaqMan™ Micro-RNA Assays according to manufacturer's protocol. A total reaction volume of 10 μL was used. Normalized rrCt was used for fold-change analysis.

[4] = test system: microfluidic devices seeded with human liver cells; test: Cytokine release (IL-6, MCP-1, IP-10) from vascular channel, human Liver-Chip; assay type: cell-based; settings: for release of IL-6 / release of MCP-1: 14 days
Description: Cytokines: Release of IL-6, MCP-1, and IP-10 from the vascular channel was quantified using U-PLEX biomarker human assays (Meso Scale Diagnostics, Rockville, Md., USA) and the assays were performed according to the protocol provided by the vendor.

[5] = test system: microfluidic devices seeded with human liver cells; test: Lipid accumulation (Nile red / AdipoRed), human Liver-Chip; assay type: cell-based
Excerpt: (§1) Microfluidic devices seeded with liver cells were stained in the upper channel with 5(6)-Carboxy-2′,7′-dichlorofluorescein diacetate (CDFDA) (ThermoFisher) to visualize bile canaliculi and MRP2 activity, cholyl-lysyl-fluorescein (CLF) (Corning) to visualize bile canaliculi and BSEP activity, Nile red (ThermoFisher) or AdipoRed (Lonza) to visualize lipid droplet accumulation, Tetramethylrhodamine, methyl ester (TMRM) (ThermoFisher) to visualize active mitochondria, and CellROX® (ThermoFisher) to visualize cellular oxidative stress. Each staining solution was prepared in blank medium or compound dosing medium and added to the upper channel, incubated for 15 minutes at 37° C., and washed three times with medium. The stained microfluidic devices were imaged using a specific filter, and were de-blurred with Olympus cellSens software. Using ImageJ-Fiji, the fluorescent channel images were histogram adjusted to remove background, followed by fluorescence quantification using the Integrated Density calculation function.
(§2) The stained microfluidic devices were imaged using the TRITC filter, and were de-blurred with Olympus cellSens software. Using ImageJ-Fiji, the fluorescent channel images were histogram adjusted to remove background, followed by fluorescence quantification using the Integrated Density calculation function. N=5 FOVs per microfluidic device were analyzed for conditions: vehicle (0.1% DMSO), FIAU dosing groups, and MTX dosing groups.

[6] = test system: microfluidic devices seeded with rat liver cells; test: Lipid accumulation (Nile red), rat Liver-Chip; assay type: cell-based; settings: FIAU 1, 10 and 30 μM for 10 days
Excerpt: as §1, with “The stained microfluidic devices were imaged using a specific filter, and were de-blurred with Olympus cellSens software.” left out
as §2

[7] = cited from earlier work
[8] = test system: microfluidic devices seeded with human liver cells; test: ROS (CellROX) live staining, human Liver-Chip; assay type: cell-based; settings: TAK-875, human chip
[9] = test system: stellate cells; test: Stellate cell activation (alpha-SMA), human Liver-Chip; assay type: cell-based; settings: TAK-875 10 or 30 uM for 15 days
Description: Microfluidic devices seeded with liver cells and static sandwich plate cultures were fixed with 4% paraformaldehyde for 15 minutes at room temperature, washed with PBS, and permeabilized (saponin 1% with 10% serum in PBS). Blocking and incubation with the primary antibodies (overnight in PBS containing 1% BSA or PBS containing 10% serum and 1% BSA) was followed by a two-hour incubation with secondary antibodies (Cell Signaling, Danvers, Mass., USA) in the same blocking buffer. Immunostaining was performed with specific primary antibodies (anti-MRP2, anti-stabilin-1, anti-BSEP, anti-α-SMA, anti-CD68; Abcam, Cambridge, Mass., USA) and images were acquired with either an Olympus fluorescence microscope (IX83) or Zeiss confocal microscope (AxiovertZ1 LSM880).
The number of CD68- or α-SMA-positive cells in the vascular channel in each group was counted in each field of view ([…]) and quantified.
The fluorescent channel (588) was first background subtracted and processed using the median filter of Image J. After processing, the signal was thresholded using adaptive thresholding function of Image J (Otsu method) to extract fluorescent regions and to measure the relative intensity of the fluorescent signal. N=4 to 6 FOVs per microfluidic device from each microfluidic device were analyzed. […]

[10] = biological target: T1, MRP2 (Homo sapiens, UniProt Q92887); test: Biliary efflux of CDFDA (MRP2 activity), human Liver-Chip; assay type: cell-based; settings: TAK-875 3, 10, 30 μM
T1 construct: Primary rat, dog or human hepatocytes were cultured in the upper parenchymal channel; endogenous in cells; host or cells: primary human hepatocytes in a microfluidic Liver-Chip
T1 sequence (Q92887 whole entry): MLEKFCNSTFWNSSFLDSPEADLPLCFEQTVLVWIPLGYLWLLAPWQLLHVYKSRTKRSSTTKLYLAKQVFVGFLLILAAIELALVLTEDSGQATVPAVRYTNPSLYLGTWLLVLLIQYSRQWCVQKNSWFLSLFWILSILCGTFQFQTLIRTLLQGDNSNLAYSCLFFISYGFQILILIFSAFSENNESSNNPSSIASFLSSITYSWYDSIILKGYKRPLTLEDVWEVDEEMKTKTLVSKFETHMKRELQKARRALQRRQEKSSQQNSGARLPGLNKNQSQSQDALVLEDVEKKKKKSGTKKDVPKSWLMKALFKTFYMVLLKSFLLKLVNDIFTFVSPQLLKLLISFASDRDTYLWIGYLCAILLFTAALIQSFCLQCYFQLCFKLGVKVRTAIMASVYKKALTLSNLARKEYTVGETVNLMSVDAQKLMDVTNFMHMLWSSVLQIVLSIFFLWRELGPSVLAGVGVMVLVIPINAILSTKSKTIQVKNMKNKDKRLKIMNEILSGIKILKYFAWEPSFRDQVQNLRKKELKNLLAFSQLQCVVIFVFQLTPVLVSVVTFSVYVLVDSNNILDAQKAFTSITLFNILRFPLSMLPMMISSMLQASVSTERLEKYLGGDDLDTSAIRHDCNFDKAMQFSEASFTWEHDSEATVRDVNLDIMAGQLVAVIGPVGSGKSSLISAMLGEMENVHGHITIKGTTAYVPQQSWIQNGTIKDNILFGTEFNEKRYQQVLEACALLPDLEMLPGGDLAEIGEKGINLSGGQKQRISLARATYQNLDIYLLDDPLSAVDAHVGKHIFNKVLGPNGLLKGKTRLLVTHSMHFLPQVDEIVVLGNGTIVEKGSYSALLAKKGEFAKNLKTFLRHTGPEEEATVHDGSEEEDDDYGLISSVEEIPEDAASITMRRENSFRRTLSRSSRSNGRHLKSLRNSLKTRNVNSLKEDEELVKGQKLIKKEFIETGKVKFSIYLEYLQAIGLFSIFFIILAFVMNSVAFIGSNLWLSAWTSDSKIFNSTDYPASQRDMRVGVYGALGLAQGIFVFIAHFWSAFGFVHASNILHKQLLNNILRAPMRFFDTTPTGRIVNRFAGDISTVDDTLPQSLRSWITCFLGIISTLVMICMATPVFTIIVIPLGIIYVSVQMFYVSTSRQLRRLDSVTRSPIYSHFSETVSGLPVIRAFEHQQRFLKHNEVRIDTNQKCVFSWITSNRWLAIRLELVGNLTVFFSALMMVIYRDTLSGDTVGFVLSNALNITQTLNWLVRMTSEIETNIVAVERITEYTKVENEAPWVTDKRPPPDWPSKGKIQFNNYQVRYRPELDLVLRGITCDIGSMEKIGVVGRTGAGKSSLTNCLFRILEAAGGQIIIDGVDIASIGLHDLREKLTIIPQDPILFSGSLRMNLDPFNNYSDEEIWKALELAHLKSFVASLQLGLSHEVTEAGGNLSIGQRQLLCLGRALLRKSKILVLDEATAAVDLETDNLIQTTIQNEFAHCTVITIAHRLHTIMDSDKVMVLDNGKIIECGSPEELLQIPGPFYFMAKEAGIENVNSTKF
Description: Both a brightfield and a fluorescence image was taken from each field of view. […] CLF-labeled regions that most likely to corresponded to bile canaliculi were automatically identified based on geometric criteria and retained only if they co-localized with a bile canaliculi signal in channel 1. […] These criteria were determined empirically using a small test set of images and then applied to images for the analysis. […] The data for treated and control samples were quantified by computing the area percentage of CLF-labeled bile canaliculi within each field of view (FOV).

[11] = test system: mitochondrial membrane potential; test: TMRM staining (mitochondrial membrane potential), human Liver-Chip; assay type: cell-based; settings: TAK-875 3, 10, 30 μM, 8 or 15 days
Excerpt: as §1

For `O=c1[nH]c(=O)n([C@@H]2O[C@H](CO)[C@@H](O)[C@@H]2F)cc1I` [FIAU, fialuridine], the “concentrations giving dose-dependent decline in albumin secretion” value ([1]; FIAU, human quadruple-cell chip, 7 days) was ≥ 1000 nM, the “hepatocyte function (albumin secretion)” value [2] was “no effects” and the “keratin 18 (K-18)” value ([3]; FIAU 10 days, human chip) was “release”. For the same compound, the miR122 ([3]; FIAU 10 days, human chip) was “release”, the α-GST ([3]; FIAU 10 days, human chip) was “release” and the “cytokines/chemokines including IP-10” value ([4]; treated Liver-Chips (discussion)) was “release”. The lipid accumulation ([5]; daily 1, 10 and 30 μM for 10 days, human quadruple-cell chip) was “dose-dependent increase”, the lipid accumulation [6] was “no effects” and the “patients with liver failure and deaths” value ([7]; Phase II clinical trials) was 5/15.

For `Cc1cc(OCCCS(C)(=O)=O)cc(C)c1-c1cccc(COc2ccc3c(c2)OC[C@H]3CC(=O)O)c1` [TAK-875], the albumin production ([1]; TAK-875 30 μM, 14 days) was “decreased”, the “formation of ROS” value [8] was “increase” and the K18 ([3]; TAK-875 30 μM, 14 days) was “increased release”. For the same compound, the “release of IL-6” value ([4]; TAK-875 10 μM) was “significant release”, the “release of MCP-1” value ([4]; TAK-875 10 μM) was “significant release” and the “release of IL-6” value ([4]; TAK-875 30 μM) was “not observed”. The “release of MCP-1” value ([4]; TAK-875 30 μM) was “not observed”, the lipid droplet accumulation ([5]; TAK-875, end of the 2-week treatment) was “detected” and the “% aSMA positive area from the vascular channel” value [9] was “Not significant”. The “biliary efflux of the MRP2 substrate CDFDA” value [10] was “dose-dependent decrease”, the “mitochondrial potential sensitive dye TMRM” value [11] was “dose-related and time-dependent redistribution” and the “incidence of treatment-related elevations in transaminases” value ([7]; human, in vivo) was 2.7%.
